# Laboratory results taken from US10870647B2, “Imidazopyridine derivative, method for preparing same, and pharmaceutical composition containing same as active ingredient for preventing or treating cancer” (DAEGU-GYEONGBUK MEDICAL INNOVATION FOUNDATION, priority 2016, dated 2020).
# What was measured:
# Assay in all cases: Kinase selectivity, scanMAX Kinase assay panel (DiscoverX), % control at 1 uM
# Type in all cases: binding
# [1] = biological target: T1, scanMAX Kinase assay panel (Homo sapiens, UniProt Q12866); conditions: MERTK; 1 uM; read-out: Percent Control (%)
# T1 construct: purchased DiscoverX
# T1 sequence (Q12866 21-999): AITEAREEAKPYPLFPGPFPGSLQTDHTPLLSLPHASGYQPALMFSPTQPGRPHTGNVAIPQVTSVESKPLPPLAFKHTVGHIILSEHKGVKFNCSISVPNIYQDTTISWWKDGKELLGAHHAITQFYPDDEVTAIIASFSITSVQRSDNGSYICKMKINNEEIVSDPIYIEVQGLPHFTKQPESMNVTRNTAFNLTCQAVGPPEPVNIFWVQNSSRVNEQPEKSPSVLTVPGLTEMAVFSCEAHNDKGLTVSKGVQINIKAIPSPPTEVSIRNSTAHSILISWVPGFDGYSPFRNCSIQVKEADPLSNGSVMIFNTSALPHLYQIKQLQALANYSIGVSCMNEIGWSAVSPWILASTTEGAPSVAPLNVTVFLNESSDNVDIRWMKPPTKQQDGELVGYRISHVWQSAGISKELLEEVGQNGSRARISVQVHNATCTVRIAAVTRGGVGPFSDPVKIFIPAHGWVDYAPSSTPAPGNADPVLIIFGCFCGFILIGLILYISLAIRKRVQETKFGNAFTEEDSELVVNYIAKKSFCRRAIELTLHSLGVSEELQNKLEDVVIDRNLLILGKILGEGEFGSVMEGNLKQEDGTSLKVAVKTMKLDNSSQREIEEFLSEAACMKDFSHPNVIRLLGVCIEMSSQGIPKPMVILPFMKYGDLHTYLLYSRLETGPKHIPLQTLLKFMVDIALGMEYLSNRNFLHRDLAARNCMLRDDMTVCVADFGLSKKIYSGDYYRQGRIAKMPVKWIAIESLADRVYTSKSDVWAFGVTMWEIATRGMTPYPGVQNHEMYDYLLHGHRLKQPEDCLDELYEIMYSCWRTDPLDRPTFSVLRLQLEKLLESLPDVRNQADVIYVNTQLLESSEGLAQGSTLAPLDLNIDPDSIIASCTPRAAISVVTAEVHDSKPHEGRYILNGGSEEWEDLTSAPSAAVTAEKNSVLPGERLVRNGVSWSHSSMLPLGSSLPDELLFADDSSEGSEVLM
# Outline: (§1)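 Binding across the scanMAX kinase panel was tested at 1 uM compound. % control = (compound − positive control)/(negative control − positive control) × 100; below 35 counted as active.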
# [2] = biological target: T2, scanMAX Kinase assay panel (Homo sapiens, UniProt Q9Y2K2); conditions: QSK; 1 uM; read-out: Percent Control (%)
# T2 construct: purchased DiscoverX
# T2 sequence (Q9Y2K2 whole entry): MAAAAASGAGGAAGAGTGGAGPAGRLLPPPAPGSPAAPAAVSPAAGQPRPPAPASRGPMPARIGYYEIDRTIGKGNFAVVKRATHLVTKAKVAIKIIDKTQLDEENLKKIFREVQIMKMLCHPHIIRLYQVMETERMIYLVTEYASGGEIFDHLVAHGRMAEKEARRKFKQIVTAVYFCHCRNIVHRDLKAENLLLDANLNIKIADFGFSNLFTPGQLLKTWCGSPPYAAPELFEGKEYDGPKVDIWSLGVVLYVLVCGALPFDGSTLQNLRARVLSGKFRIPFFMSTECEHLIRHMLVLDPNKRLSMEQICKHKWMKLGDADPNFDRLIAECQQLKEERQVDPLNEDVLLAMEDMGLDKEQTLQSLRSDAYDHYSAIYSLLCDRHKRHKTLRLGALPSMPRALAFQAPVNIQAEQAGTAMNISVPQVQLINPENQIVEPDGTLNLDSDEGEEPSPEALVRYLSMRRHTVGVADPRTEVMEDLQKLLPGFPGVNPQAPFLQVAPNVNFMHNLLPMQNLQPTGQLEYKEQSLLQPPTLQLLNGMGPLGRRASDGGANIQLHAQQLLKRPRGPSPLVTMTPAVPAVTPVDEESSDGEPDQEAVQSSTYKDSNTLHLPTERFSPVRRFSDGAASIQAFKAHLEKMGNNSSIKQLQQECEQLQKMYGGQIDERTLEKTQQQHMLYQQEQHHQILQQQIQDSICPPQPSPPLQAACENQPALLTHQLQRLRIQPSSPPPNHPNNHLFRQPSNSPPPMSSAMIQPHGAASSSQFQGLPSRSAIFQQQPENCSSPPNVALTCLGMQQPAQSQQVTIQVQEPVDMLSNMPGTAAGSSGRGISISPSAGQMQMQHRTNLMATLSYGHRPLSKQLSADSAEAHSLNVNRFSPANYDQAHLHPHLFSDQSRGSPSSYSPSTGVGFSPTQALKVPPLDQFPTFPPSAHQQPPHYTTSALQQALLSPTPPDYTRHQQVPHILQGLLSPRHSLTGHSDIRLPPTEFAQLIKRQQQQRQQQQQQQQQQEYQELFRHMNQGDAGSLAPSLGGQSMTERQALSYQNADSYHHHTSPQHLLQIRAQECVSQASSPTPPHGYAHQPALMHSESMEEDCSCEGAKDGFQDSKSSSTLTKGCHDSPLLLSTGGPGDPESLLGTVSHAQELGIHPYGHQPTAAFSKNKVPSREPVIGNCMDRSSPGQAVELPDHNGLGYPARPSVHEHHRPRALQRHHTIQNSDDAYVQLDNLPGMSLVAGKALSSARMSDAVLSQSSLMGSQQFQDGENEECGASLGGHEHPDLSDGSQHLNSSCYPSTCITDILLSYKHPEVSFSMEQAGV
# Outline: as §1
# [3] = biological target: T3, scanMAX Kinase assay panel (Homo sapiens, UniProt P41743); conditions: PRKCI; 1 uM; read-out: Percent Control (%)
# T3 construct: purchased DiscoverX
# T3 sequence (P41743 1-596): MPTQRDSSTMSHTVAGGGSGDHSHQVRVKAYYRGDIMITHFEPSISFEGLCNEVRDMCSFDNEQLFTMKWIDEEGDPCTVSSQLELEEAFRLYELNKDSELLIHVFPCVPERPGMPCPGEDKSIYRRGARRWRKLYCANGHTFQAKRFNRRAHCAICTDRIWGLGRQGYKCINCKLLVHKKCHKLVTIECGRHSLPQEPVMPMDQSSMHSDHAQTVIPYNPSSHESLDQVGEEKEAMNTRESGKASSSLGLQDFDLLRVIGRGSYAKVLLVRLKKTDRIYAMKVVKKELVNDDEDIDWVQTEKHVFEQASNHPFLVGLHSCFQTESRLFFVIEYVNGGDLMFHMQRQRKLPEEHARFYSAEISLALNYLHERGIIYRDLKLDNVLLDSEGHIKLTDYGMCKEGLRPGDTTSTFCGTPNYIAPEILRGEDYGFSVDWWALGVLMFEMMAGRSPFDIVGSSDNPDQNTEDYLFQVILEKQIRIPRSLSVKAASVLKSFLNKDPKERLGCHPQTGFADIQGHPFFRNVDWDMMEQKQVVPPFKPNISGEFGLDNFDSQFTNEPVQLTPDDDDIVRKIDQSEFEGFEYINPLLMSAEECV
# Outline: as §1
# [4] = biological target: T4, scanMAX Kinase assay panel (Homo sapiens, UniProt P21860); conditions: ERBB3; 1 uM; read-out: Percent Control (%)
# T4 construct: purchased DiscoverX
# T4 sequence (P21860 20-1342): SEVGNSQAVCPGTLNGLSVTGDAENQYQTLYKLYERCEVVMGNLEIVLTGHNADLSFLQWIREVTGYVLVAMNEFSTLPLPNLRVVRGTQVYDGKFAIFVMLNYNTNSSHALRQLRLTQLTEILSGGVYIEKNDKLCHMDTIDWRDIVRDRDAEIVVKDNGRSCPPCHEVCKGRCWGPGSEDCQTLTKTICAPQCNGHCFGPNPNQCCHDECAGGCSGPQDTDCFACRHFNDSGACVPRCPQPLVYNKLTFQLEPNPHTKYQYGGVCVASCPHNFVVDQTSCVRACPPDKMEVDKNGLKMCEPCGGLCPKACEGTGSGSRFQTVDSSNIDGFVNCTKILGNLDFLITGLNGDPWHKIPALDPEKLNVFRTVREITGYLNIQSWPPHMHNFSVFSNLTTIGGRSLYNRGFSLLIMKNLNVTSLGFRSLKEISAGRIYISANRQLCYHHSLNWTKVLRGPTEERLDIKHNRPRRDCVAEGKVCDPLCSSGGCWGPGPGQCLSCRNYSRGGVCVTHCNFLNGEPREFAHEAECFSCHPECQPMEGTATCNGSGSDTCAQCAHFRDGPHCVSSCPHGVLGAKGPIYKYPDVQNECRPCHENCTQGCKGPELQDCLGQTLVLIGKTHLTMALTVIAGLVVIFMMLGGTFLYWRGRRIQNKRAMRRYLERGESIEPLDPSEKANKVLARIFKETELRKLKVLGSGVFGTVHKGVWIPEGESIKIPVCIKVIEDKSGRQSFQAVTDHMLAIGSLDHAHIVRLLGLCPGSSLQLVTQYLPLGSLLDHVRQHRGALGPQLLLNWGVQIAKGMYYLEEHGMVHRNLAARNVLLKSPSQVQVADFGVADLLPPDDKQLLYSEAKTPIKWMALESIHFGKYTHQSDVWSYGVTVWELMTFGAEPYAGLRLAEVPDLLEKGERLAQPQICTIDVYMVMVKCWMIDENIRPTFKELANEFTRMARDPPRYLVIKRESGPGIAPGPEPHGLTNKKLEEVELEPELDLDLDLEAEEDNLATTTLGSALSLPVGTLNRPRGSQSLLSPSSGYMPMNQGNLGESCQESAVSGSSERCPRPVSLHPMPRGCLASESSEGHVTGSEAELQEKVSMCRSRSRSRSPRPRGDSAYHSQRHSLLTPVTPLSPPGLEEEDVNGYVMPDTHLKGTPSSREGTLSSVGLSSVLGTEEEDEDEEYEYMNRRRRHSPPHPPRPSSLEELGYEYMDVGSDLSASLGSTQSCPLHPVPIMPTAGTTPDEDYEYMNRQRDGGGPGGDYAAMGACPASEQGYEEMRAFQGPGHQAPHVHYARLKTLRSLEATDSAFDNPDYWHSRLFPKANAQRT
# Outline: as §1
# [5] = biological target: T5, scanMAX Kinase assay panel (Homo sapiens, UniProt Q13464); conditions: ROCK1; 1 uM; read-out: Percent Control (%)
# T5 construct: purchased DiscoverX
# T5 sequence (Q13464 whole entry): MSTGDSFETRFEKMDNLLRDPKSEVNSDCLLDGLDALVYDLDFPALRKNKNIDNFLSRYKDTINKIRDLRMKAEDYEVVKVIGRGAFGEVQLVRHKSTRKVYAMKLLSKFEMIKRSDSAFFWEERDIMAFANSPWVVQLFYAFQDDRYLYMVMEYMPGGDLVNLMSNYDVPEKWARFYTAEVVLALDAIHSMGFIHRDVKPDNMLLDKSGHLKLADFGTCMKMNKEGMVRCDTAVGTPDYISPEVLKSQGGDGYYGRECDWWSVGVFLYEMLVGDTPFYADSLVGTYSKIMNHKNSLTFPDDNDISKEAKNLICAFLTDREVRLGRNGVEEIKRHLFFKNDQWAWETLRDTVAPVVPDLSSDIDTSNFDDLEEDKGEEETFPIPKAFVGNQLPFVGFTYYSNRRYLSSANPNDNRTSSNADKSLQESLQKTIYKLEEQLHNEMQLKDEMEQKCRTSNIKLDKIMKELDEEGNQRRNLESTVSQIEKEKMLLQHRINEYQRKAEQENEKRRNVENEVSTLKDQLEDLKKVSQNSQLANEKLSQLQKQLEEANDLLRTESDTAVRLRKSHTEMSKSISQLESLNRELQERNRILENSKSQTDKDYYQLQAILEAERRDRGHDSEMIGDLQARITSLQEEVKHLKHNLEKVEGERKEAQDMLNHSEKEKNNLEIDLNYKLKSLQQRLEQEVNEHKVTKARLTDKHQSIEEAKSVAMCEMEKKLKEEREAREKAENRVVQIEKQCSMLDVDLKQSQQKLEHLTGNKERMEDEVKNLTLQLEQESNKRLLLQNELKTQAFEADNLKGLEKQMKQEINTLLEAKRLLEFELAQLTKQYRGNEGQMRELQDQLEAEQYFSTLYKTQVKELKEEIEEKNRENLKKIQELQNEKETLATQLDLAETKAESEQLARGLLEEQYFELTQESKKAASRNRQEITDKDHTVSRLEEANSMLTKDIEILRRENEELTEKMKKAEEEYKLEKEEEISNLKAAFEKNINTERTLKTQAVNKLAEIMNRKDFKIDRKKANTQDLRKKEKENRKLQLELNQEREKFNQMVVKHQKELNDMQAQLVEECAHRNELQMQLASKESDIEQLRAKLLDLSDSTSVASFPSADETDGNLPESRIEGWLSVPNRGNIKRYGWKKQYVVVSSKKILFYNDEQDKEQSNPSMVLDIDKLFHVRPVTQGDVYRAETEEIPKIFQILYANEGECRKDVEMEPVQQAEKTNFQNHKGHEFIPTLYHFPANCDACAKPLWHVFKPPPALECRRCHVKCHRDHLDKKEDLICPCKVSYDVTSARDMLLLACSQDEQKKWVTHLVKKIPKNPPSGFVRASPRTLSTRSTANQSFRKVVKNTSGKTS
# Outline: as §1
# [6] = biological target: T6, scanMAX Kinase assay panel (Homo sapiens, UniProt P06241); conditions: FYN; 1 uM; read-out: Percent Control (%)
# T6 construct: purchased DiscoverX
# T6 sequence (P06241 whole entry): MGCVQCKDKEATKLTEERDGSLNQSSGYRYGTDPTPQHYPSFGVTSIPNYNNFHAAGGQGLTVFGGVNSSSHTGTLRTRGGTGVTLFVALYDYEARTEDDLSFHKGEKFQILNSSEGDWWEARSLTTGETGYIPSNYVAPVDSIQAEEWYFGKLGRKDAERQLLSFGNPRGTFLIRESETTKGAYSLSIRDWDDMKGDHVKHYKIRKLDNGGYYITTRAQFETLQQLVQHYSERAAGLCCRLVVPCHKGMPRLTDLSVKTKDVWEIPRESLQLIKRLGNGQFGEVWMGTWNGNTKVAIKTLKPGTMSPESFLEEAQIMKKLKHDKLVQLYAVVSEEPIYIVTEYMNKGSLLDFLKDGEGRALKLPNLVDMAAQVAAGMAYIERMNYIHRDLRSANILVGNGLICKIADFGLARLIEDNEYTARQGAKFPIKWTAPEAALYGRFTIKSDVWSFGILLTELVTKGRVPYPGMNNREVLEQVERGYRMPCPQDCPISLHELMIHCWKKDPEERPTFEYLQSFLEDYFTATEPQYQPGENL
# Outline: as §1
# [7] = biological target: T7, scanMAX Kinase assay panel (Homo sapiens, UniProt Q13546); conditions: RIPK1; 1 uM; read-out: Percent Control (%)
# T7 construct: purchased DiscoverX
# T7 sequence (Q13546 1-671): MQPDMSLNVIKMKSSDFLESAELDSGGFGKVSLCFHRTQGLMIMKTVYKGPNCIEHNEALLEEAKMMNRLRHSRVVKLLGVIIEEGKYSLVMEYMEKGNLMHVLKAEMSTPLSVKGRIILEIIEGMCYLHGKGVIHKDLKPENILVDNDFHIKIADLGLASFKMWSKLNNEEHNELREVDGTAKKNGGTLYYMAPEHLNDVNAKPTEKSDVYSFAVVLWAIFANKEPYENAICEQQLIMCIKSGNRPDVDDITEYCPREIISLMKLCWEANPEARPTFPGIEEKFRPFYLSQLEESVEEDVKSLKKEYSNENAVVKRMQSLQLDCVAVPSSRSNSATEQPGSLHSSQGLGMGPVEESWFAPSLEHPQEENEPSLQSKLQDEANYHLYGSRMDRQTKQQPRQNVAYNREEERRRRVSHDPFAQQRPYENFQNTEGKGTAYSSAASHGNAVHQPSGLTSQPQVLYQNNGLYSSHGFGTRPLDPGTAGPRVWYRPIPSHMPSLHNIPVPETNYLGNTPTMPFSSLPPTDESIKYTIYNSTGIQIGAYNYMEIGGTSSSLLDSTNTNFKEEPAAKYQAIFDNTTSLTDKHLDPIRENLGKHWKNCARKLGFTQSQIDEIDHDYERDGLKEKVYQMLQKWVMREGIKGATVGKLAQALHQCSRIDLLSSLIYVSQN
# Outline: as §1
SMILES,remaining binding at 1 µM [1] [%],remaining binding at 1 µM [2] [%],remaining binding at 1 µM [3] [%],remaining binding at 1 µM [4] [%],remaining binding at 1 µM [5] [%],remaining binding at 1 µM [6] [%],remaining binding at 1 µM [7] [%]
"Cc1ccc(C(=O)Nc2ccc(CN3CCN(C)CC3)c(C(F)(F)F)c2)cc1C#Cc1cnc2c(Nc3cnn(C)c3)cccn12 [Example 1, 4-methyl-3-((8-((1-methyl-1H-pyrazol-4-yl)amino)imidazo[1,2-a]pyridin-3-yl)ethynyl)-N-(4-((4-methylpiperazin-1-yl)methyl)-3-(trifluoromethyl)phenyl)benzamide]",0,89,51,86,89,1,0
"Cc1cn(-c2cc(NC(=O)c3ccc(C)c(C#Cc4cnc5c(Nc6cnn(C)c6)cccn45)c3)cc(C(F)(F)F)c2)cn1 [Example 12, 4-methyl-N-(3-(4-methyl-1H-imidazol-1-yl)-5-(trifluoromethyl)phenyl)-3-((8-((1-methyl-1H-pyrazol-4-yl)amino)imidazo[1,2-a]pyridin-3-yl)ethynyl)benzamide]",3,97,66,98,100,15,5
Cc1ccc(NC(=O)C2(C(=O)Nc3ccc(F)cc3)CC2)cc1C#Cc1cnc2c(Nc3cnn(C(C)C)c3)cccn12 [Example 78],100,100,69,99,100,84,19
